The results in this text go back to patent US11066371B2, “Pyridine compound, making, and use thereof” (UNITED ARAB EMIRATES UNIVERSITY, priority 2015, dated 2021).

`Cc1c(C#N)c([O-])nc(-c2ccccc2)c1/N=N/c1ccc([N+](=O)[O-])cc1.[K+]` yielded a melting point above 300 °C.

The term melting point denotes the temperature, or range, at which the solid turns liquid.
